Data from ChEMBL document CHEMBL1152228, “Using proton nuclear magnetic resonance to study the mode of ribonuclease A inhibition by competitive and noncompetitive inhibitors” (Bioorg Med Chem Lett, 2008).

Target: T1, Ribonuclease pancreatic (Homo sapiens, UniProt P07998)
T1 sequence (P07998 whole entry): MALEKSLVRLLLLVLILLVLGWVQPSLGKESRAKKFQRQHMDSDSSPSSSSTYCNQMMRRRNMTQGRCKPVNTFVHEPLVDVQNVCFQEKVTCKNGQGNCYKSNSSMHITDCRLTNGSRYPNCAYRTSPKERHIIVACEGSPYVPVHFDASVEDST
Test: Inhibition of ribonucleolytic activity of RNase A by agarose gel based assay

Ki [µM]	SMILES
120	CCOC(=O)C1CCN([C@H]2[C@H](O)[C@H](n3ccc(=O)[nH]c3=O)O[C@@H]2CO)CC1
103	O=C(O)C1CCN([C@H]2[C@H](O)[C@H](n3ccc(=O)[nH]c3=O)O[C@@H]2CO)CC1
